# Results from patent US20250186458A1, “METHODS FOR THE TREATMENT OF MILD COGNITIVE IMPAIRMENT” (BIOVIE INC., priority 2022, published 2025).
# Columns and labels:
# [1] = tested on: patients with cognitive impairment consistent with MCI or mild probable AD; experiment: Open-label three-month study, cognitive tests (QDRS, MMSE, MoCA, ADAS-Cog12, Global Rating of Change); format: in vivo, human
# Description: Twenty-three patients, approximately equal numbers of men women, age 50-89 years, with cognitive impairment consistent with MCI or mild probable AD, but without other readily apparent major systemic disease were identified and received informed consent under the supervision of a central institution review board (IRB). Patients were qualified (screened) for the study by the following criteria, QDRS score ranging from 1.5-12.5, with a converted Clinical Dementia Rating (CDR) score of 0.5 (mild cognitive impairment) to 1 (mild dementia).
# Prior to treatment (baseline) concomitant medications were stabilized and the patients were tested for cognitive function by the Quick Dementia Rating Scale (QDRS), Clinical Dementia Rating (CDR) score as estimated by the QDRS, a modified form of the Alzheimer's Disease Assessment Scale (ADAS-Cog12), the Mini-Mental State Examination (MMSE), and the Montreal Cognitive Assessment (MoCA) and by multi-modal brain MRIs to establish pre-treatment data for glutathione levels (as measured by magnetic resonance spectroscopy, MRS), dendritic density (as measured by diffusion tensor imaging, DTI-NODDI); arterial signal compared (as quantified by arterial spin labeling, ASL), functional connectivity of the nucleus basalis of Meynert (NBM) with both hippocampi as well as between both hippocampi as visualized by seed analysis of blood-oxygen level dependent (BOLD) imaging, and neurovascular coupling as visualized by BOLD compared to baseline. Baseline samples of the patients' blood and cerebral spinal fluid were collected for evaluation of AD and inflammation biomarkers.
# Patients were treated with 20 mg 17α-ethynylandrost-5-ene-3β,7β,17β-triol oral capsules twice daily (BID for three months. All patients received 17α-ethynylandrost-5-ene-3β,7β,17β-triol; there were no placebo controls. Safety was monitored at clinical visits at 2 weeks, 4 weeks, 8 weeks, and completion. Routine hematology and clinical chemistry tests were performed at these visits and adverse events were monitored.
# At the end of the treatment schedule the baseline assessments for cognition, neuroimaging and biomarkers were repeated.
# [2] = tested on: patients with degenerative dementia; experiment: Exit interviews with patients who completed NE3107-TRP-001; format: in vivo, human
# Description: The exit interviews were conducted in the US with 11 adult patients/study partners who completed the Phase 2 trial of NE3107. Participants (patients and study partners) completed one 60-minute semi-structured interview via remote videoconference to facilitate face-to-face communication.
# Each interview was divided into four parts: 1) elicitation of experience with degenerative dementia, 2) changes due to treatment with NE3107 and meaningfulness of those changes, 3) experience with NE3107 during the trial, and, if applicable, 4) study partner perceptions of the patient's changes during the trial and their trial experience.
# Interviews took place via videoconference with a trained and experienced interviewers using a semi-structured interview guide. Participants were required to confirm that they signed the ICF for the exit interview, and provide permission to record the interview. The interviews lasted approximately 60 minutes. Open-ended questions were used to characterize the participant's experience with degenerative dementia. Three overarching topics were covered: 1) degenerative dementia signs and symptoms prior to the trial, 2) changes experienced during the trial, and 3) experience with the trial medication (NE3107). Interviewers noted spontaneously reported changes experienced during the trial and followed up with probes (as needed) to elicit the full range of changes experienced.
# If both the patient and study partner participated, the patient was interviewed first with the study partner present. Following the patient interview, the study partner was interviewed without the patient present. Interviewers were instructed to direct the questions towards the patient and to remind the study partner that they would have an opportunity to add information or different perspectives at the end.
# The coding and analysis of the interview transcripts followed principles in line with qualitative thematic (content) analysis (Braun et al. 2019), with additional features drawn from grounded theory (Bryant and Charmaz 2007; Strauss and Corbin 1998). This approach conforms to best practices in the field (Patrick et al. 2011). A saturation table was developed during the coding process and updated after each interview to ensure that the interviews provided sufficient quality and quantity of data to support the study goals. The focus of saturation was changes due to treatment.
# During the interviews, patients were asked open-ended questions about any changes they experienced as a result of being treated with NE3107. Patients reported 14 unique change-related concepts related that were categorized as follows: cognitive (2 concepts), psychological (4 concepts), behavioral (2 concepts), physical (5 concepts), and no change (1 concept) (Table 3).
# [3] = overall population, three months
# [4] = patients with a baseline MMSE score 20, three months
structure (smiles),measurement,setting,value
"C#C[C@]1(O)CC[C@H]2[C@@H]3[C@@H](O)C=C4C[C@@H](O)CC[C@]4(C)[C@H]3CC[C@@]21C [17α-ethynylandrost-5-ene-3β,7β,17β-triol, 17-ethynyl-10R, 13S-dimethyl 2,3,4,7, 8R, 9S, 10, 11, 12, 13, 14S, 15, 16, 17-hexadecahydro-1H-cyclopenta[a]phenanthrene-3R, 7R, 17S-triol]","QDRS, median decrease","[1]; 20 mg oral BID, three months vs baseline",0.75 points
same,"GSR scores improved, by patients","[1]; MCI patients, three months",15 of 17
same,"GSR scores improved, by study partners","[1]; MCI patients, three months",11 of 17
same,"GSR scores improved, by the clinician","[1]; MCI patients, three months",16 of 17
same,Median QDRS behavioral improved,"[1]; MCI patients, three months",one
same,"Montreal Cognitive Assessment, improved","[1]; MCI patients, three months",7 of 17
same,"QDRS behavioral, improved","[1]; MCI patients, three months",11 of 18
same,"ADAS Cog 12, median score improved","[1]; MCI population, three months",2.3 points
same,"ADAS Cog 12 score, improved","[1]; MCI population, three months",14 of 17
same,"MMSE score, improved","[1]; MCI population, three months",8 of 17
same,"QDRS, patients improved","[1]; of patients evaluated, 20 mg oral BID, three months",14 of 21
same,"ADAS Cog 12, median score improved",[1]; [3],0.67 points
same,"ADAS Cog 12 score, improved",[1]; [3],14 of 23
same,"Global Rating of Change (GRS), clinician's score improved",[1]; [3],18 of 23
same,"Global Rating of Change (GRS), patient's self-evaluation score improved",[1]; [3],18 of 23
same,"Global Rating of Change (GRS), score from study partners improved",[1]; [3],13 of 22
same,"MMSE score, improved",[1]; [3],9 of 23
same,"Montreal Cognitive Assessment, patients improved",[1]; [3],9 of 23
same,improved (QDRS),[1]; [4],12/17
same,median score improvement (QDRS),[1]; [4],one
same,Median QDRS cognition subscores improved (declined),[1]; three months vs baseline,0.5 points
same,"QDRS cognition subscores, patients improved",[1]; three months vs baseline,16/23
same,average number of positive changes per patient who improved,"[2]; SD=1.86, range 1-7",4.7
same,Change due to treatment reported by patients: No Change,"[2]; exit interviews, N = 11",2 n
same,patients who experienced no change,"[2]; exit interviews, N = 11, figure in brackets after the count",15.4
same,Change due to treatment reported by patients: No Change,"[2]; exit interviews, N = 11, listed as NE3107",two
same,Cognitive Change from Interview (Memory or Clarity),[2]; subject N-02-22,Improvement
same,Cognitive Change from Interview (Memory or Clarity),[2]; subject N-03-22,Improvement
same,Cognitive Change from Interview (Memory or Clarity),[2]; subject N-07-22,Improvement
same,Cognitive Change from Interview (Memory or Clarity),[2]; subject N-10-22,No Change
same,Cognitive Change from Interview (Memory or Clarity),[2]; subject N-14-22,No Change
same,Cognitive Change from Interview (Memory or Clarity),[2]; subject N-16-22,Improvement
same,Cognitive Change from Interview (Memory or Clarity),[2]; subject N-17-22,Improvement
same,Cognitive Change from Interview (Memory or Clarity),[2]; subject N-18-22,Improvement
same,Cognitive Change from Interview (Memory or Clarity),[2]; subject N-20-22,Improvement
same,Cognitive Change from Interview (Memory or Clarity),[2]; subject N-22-22,Improvement
same,Cognitive Change from Interview (Memory or Clarity),[2]; subject N-23-22,Improvement
